Reference: patent publication US20100197625A1, “SYNTHETIC LIPOPHILIC INOSITOL GLYCANS FOR TREATMENT OF CANCER AND GLUCOSE-METABOLISM DISORDERS” (priority 2006, published 2010)

Columns and labels:
MiaPaca2 = test: Cell proliferation / cell death assay, MiaPaca2; assay type: cell-based, human; conditions: MiaPaca2, 10-100 μM
Procedure: (§1) Human pancreatic cancer cell lines (Panc-1, MiaPaca2, BXPC3, Aspc 1), human hepatoma cell line (HuH7), human gastric cancer cell lines (AGS, MKN45), human colon cancer cell line (CoCM-1), human mammary cancer cell line (MCF-7), human neuroblastoma (SH-SY5Y), human prostate cancer cells (PC3), and murine Ehrlich ascites cancer cells and mouse 3T3-L1 fibroblasts were obtained from American Type Culture Collection (Rockville, Md., USA). The cancer cells were cultured in RPMI 1640 containing 10% fetal calf serum. Cultures were maintained at 37° C. in a humidified atmosphere of 5% CO2.
(§2) Cell proliferation assays were performed with the CellTiter 96 AQueous One Solution Cell Proliferation Assay kit according to the manufacturer's instructions (Promega, Madison, Wis., USA). Briefly, 5×10^3 cells/well in medium were placed onto 96-well plates. IGs were added to cellular cultures at final concentrations of 0, 1, 10, and 100 μM. Cultures were incubated for 3 days or 7 days and then added to 20 μL/well of CellTiter 96 AQueous One Solution Reagent, which contains a tetrazolium compound, 3-(4,5-dimethylthiazol-2-yl)-5-(3-carboxymethoxyphenyl)-2-(4-sulfophenyl)-2H-tetrazolium, an inner salt; MTS was added to the culture medium. After incubating the plate for 1 h in a CO2 incubator, absorbance at 490 nm was recorded with a 96-well plate reader.

ob/ob obese mice = test: IG-1 treatment for 28 days, ob/ob obese mice; assay type: in vivo; conditions: IG1 1 mg, Mean ± SD (n = 6)
Procedure: (§3) Blood glucose was assayed with Glucose Ace (Sanwa Kagaku Kenkyusho, Nagoya, Japan). Serum insulin and leptin were determined with ELISA kits (Morinaga Institute of Biological Science, Yokohama, Japan). Serum adiponectin and tumor necrosis factor-α (TNF-α) concentrations were measured with an ELISA kit (Ohtsuka Pharmaceutical, Tokyo, Japan) and a TNF-α assay kit (Amersham Biosciences, Uppsala, Sweden), respectively. Serum total cholesterol, triglyceride, and FFA concentrations were determined with a Cholescolor liquid, Lipidos liquid (TOYOBO, Osaka, Japan), and NEFA C (Wako Pure Chemical, Osaka, Japan) kits, respectively.

db/db mice = test: Intraperitoneal IG1 for 7 days, db/db mice; assay type: in vivo; conditions: intraperitoneal for every 7 days, data not shown
Procedure: Male C57BL/6 mice were housed individually and given free access to a standard diet (65% carbohydrate, 4% fat, and 24% protein) or a high-fat diet (Quick Fat; 60.2% carbohydrate, 15.3% fat, and 24.5% protein; Clea Japan, Tokyo, Japan), starting at 5 weeks of age, for 5 weeks. Db/db mice also were housed individually and given free access to a standard diet. C57BL/6 mice at 5 weeks of age, were received a single dose of 75 μg/g body weight streptozotoxin (STZ). 7 days after injections, the mice, whose fasting plasma glucose concentrations were over 400 mg/dl, were used as STZ-diabetic mice. […]
Frozen livers were homogenized, and triglycerides were extracted with CHCl3:CH3OH (2:1, vol:vol), dried and resuspended in 2-propanol (17). Triglyceride contents were measured using Lipidos liquid (TOYOBO, Osaka, Japan). […] Glycogen content was determined by the phenol-sulfuric acid spectrophotometric method at 490 nm (18) and expressed as micrograms of glycogen per milligram of liver.
as §3, with “Serum total cholesterol, triglyceride, and FFA concentrations were determined with a Cholescolor liquid, Lipidos liquid (TOYOBO, Osaka, Japan), and NEFA C (Wako Pure Chemical, Osaka, Japan) kits, respectively.” left out

[1] = system: human mammary cancer cells (MCF-7); test: Cell proliferation / cell death assay, MCF-7; assay type: cell-based; conditions: MCF-7, 10-100 μM
Procedure: as §1, §2

AGS = test: Cell proliferation / cell death assay, AGS; assay type: cell-based, human; conditions: 10-100 μM
Procedure: as §1, §2

BXPC3 = test: Cell proliferation / cell death assay, BXPC3; assay type: cell-based, human; conditions: BXPC3, 10-100 μM
Procedure: as §1, §2

[2] = system: C57B/6 mice on high-fat diets; test: IG1 treatment for 28 days, mice on high-fat diets; assay type: in vivo; conditions: data not shown
Procedure: (§4) Male C57BL/6 mice were housed individually and given free access to a standard diet (65% carbohydrate, 4% fat, and 24% protein) or a high-fat diet (Quick Fat; 60.2% carbohydrate, 15.3% fat, and 24.5% protein; Clea Japan, Tokyo, Japan), starting at 5 weeks of age, for 5 weeks. Db/db mice also were housed individually and given free access to a standard diet. C57BL/6 mice at 5 weeks of age, were received a single dose of 75 μg/g body weight streptozotoxin (STZ). 7 days after injections, the mice, whose fasting plasma glucose concentrations were over 400 mg/dl, were used as STZ-diabetic mice. Animal study protocols were in accordance with the institutional guidelines for animal experiments at Tohoku University.
as §3

3T3-L1 adipocytes = test: Glycogen synthesis in 3T3-L1 adipocytes; assay type: cell-based, mouse; conditions: 10-1000 μM
Procedure: 3T3-L1 fibroblasts were maintained in Dulbecco's modified Eagle's medium (DMEM) with 25 mM glucose plus 10% fetal bovine serum (FBS). Following 2 days at confluence, differentiation was initiated by the addition of DMEM containing 10% FBS, 167 nM insulin, […] dexamethasone, and 0.5 mM isobutylmethylxanthine. Three days later, the medium was replaced with DMEM plus 10% FBS and 167 nM insulin. After 2 more days, the medium was switched to DMEM plus 10% fetal bovine serum. Adipocytes were used 6-14 days after completion of the differentiation protocol, when >90% of the cells expressed the adipocyte phenotype. Prior to experiments, cells were washed two times with DMEM medium containing 5 mM glucose, 0.2% bovine serum albumin, 25 mM Hepes (pH 7.4), 100 units/ml penicillin, 100 units/ml streptomycin and 0.29 mg/ml glutamine, and were incubated in the same medium for 2 h. Glycogen and lipid synthesis were measured in 24-well dishes. […] The lipids were then extracted overnight with 5 ml of Betafluor (National Diagnostics), and glucose incorporation into lipid was measured by scintillation counting. 400 μl of the cell suspension was added to 600 μl of 50% KOH, and glycogen was precipitated and radioactivity was counted by a liquid scintillation counter

[3] = system: C57B/6 mice on high-fat diets; test: Intraperitoneal IG1 for 7 days, mice on high-fat diets; assay type: in vivo
Procedure: as §4
Frozen livers were homogenized, and triglycerides were extracted with CHCl3:CH3OH (2:1, vol:vol), dried and resuspended in 2-propanol (17). Triglyceride contents were measured using Lipidos liquid (TOYOBO, Osaka, Japan). Glycogen was isolated from 30-50 mg of frozen liver by dissolving the tissue in 30% potassium hydroxide saturated with Na2SO4 for 30 min at 100° C., followed by ethanol precipitation. Glycogen content was determined by the phenol-sulfuric acid spectrophotometric method at 490 nm (18) and expressed as micrograms of glycogen per milligram of liver.
as §3
Glucose tolerance was assessed with intraperitoneal glucose tolerance. Glucose tolerance tests were performed on fasted (16 h) mice. Mice were given intraperitoneal glucose (2 g/kg body wt), and blood glucose was assayed immediately before and at 15, 30, 60, and 120 min after administration.

[4] = high fat-diets, IG1 1 mg, 7 days, Mean ± SD (n = 6)

CCCCCCCCCCCCCCCC(=O)O[C@@H]1C(O)C(O)[C@H](O)C(O[C@H]2OC(CO)[C@@H](O)[C@H](O)C2N)C1O (stereo in doubt) [IG1, 2-Amino-2-deoxy-α-D-glucopyranosyl-(1→6)-2-palmitoyl-D-myo-inositol]
rapid cancer cell death (MiaPaca2): rapid cancer cell death was demonstrated | Adiponectin (ob/ob obese mice): 47.6 ± 4.6 µg/mL | Body weight (ob/ob obese mice): 40.1 ± 3.2 g | Fasting plasma glucose (ob/ob obese mice): 66.1 ± 8.3 mg/dL | Fasting plasma insulin (ob/ob obese mice): 16.3 ± 4.3 ng/mL | Food intake (ob/ob obese mice): 4.53 ± 0.74 g/day | NEFA (ob/ob obese mice): 0.88 ± 0.34 mEq/l | TNF-1α (ob/ob obese mice): 34.7 ± 6.7 pg/mL | Total cholesterol (ob/ob obese mice): 172.4 ± 13.6 mg/dL | Triglyceride (ob/ob obese mice): 31.2 ± 5.3 mg/dL | glucose tolerance (db/db mice): improves glucose tolerance | hepatic and muscular glycogen synthesis (db/db mice): increases hepatic and muscular glycogen synthesis | rapid cancer cell death [1]: rapid cancer cell death was demonstrated | rapid cancer cell death (AGS): rapid cancer cell death was demonstrated | rapid cancer cell death (BXPC3): rapid cancer cell death was demonstrated | daily food intakes, body weight, and fasting plasma concentrations of insulin, triglyceride, free fatty acids and leptin [2]: significantly reduces | glycogen synthesis (3T3-L1 adipocytes): stimulates | hepatic and muscular glycogen contents ([3]; after 7 days, data not shown): increases hepatic and muscular glycogen contents | hepatic triglyceride contents ([3]; after 7 days, data not shown): decreases hepatic triglyceride contents | Adiponectin [3, 4]: 50.4 ± 4.8 µg/mL | Body weight [3, 4]: 32.1 ± 1.8 g | Fasting plasma glucose [3, 4]: 62.8 ± 6.3 mg/dL | Fasting plasma insulin [3, 4]: 0.44 ± 0.19 ng/mL | Food intake [3, 4]: 2.93 ± 0.37 g/day | Leptin [3, 4]: 17.3 ± 5.4 ng/mL | NEFA [3, 4]: 0.78 ± 0.18 mEq/l | TNF-1α [3, 4]: 33.7 ± 4.4 pg/mL | Total cholesterol [3, 4]: 177.9 ± 24.6 mg/dL | Triglyceride [3, 4]: 26.2 ± 4.4 mg/dL | glucose tolerance ([3]; intraperitoneal, 1 mg per mice, for every 7 days): significantly improved glucose tolerance
